Here are results for 1 compound from patent publication US20080039485A1, “LOW-DOSE-LONG-TERM PHARMACEUTICAL COMPOSITION COMPRISING CAMPTOTHECIN DERIVATIVES FOR THE TREATMENT OF CANCERS” (TARGETGEN BIOTECHNOLOGY CO., LTD., priority 2006, published 2008).

The subject of test [1] is caspases (IETD-pNA and LEHD-pNA substrates). Put plainly: IETD-pNA and LEHD-pNA cleavage in cell lysates. It is filed as cell-based, human. The note with it: Colo-205 cells.
Test [2] concerns human colon cancer Colo-205 cells. Briefly: MTT assay of cell growth, Colo-205. It is filed as cell-based. The protocol:
Two human colon cancer cell lines, Colo-205 (ATCC accession No. CCL-222) and HT-29 (ATCC accession No. HTB-38), were used in this study. Cells were treated with 0.2, 0.76, 1.52, 7.62, 15.24, 22.87, 30.49, 38.11, 45.73 or 53.35 μM 10-HCPT or CPT-11 for 1-3 days, and the relative number of the viable cells was determined by MTT assay as described below.
Cells were seeded in a 24-well cell culture cluster (Costar, Cambridge, Mass.) at a density of 1×10^6 cells per mL and cultured overnight prior to drug treatment. After 10-HCPT or CPT-11 treatment for 3 days, the medium was discarded and replaced with an equal volume (0.5 mL) of fresh medium containing 0.456 mg/mL 3-[4,5-dimethylthiazol-2-yl]-2,5-diphenyl-tetrazolium bromide (MTT; Sigma Chemical Company) and incubated for 2 hours at 37° C. in the dark. The medium was discarded, and cells were then combined with […] dimethyl sulfoxide (Sigma Chemical Company) to dissolve the formazan produced. Cell viability was determined according to the calorimetric comparison by reading optical density (OD) values from a microplate reader (Spectra Max 250; Spectra Diode Laboratories, CA) at an absorption wavelength of 570 nm.
For orientation: Formazan colour is commonly taken as a measure of viable cells.

In test [3] the test system is cell cycle regulatory proteins in Colo-205 cells. Briefly: Western blotting of cell cycle regulatory proteins. It is filed as cell-based, human. The note with it: Colo-205, 3 μM, 48 hr. From the text:
The progression of the cell cycle is promoted by various CDKs binding with their respective cyclin partners and inhibited by CDK inhibitors such as p21 and p27. In general, CDK2 in association with cyclin E regulates the G1/S transition, and CDK1 in concert with type-A and -B cyclins controls the G2/M transition. Both cell cycle inhibitory proteins p21 and p27 block cell cycle progression at the G1/S as well as the G2/M transitions of cell cycle. […] To confirm this speculation, we analyzed the expressions of several cell cycle regulatory proteins by means of Western blotting assay as described below.
Colo-205 cells were cultured in Dulbecco's modified Eagle Medium (DMEM) supplemented with 10% fetal bovine serum (FBS) at 37° C. in a 5% CO2 atmosphere. Cells were seeded in 6-well plate and incubated with 3 μM of 10-HCPT. After 48 hr, the treated cells were washed twice with phosphate-buffered saline (PBS), flash frozen in liquid nitrogen, and stored at −80° C. The harvested cells were lysed in ice-cold report lysis buffer (Promega). After cleaning the resulted lysates by centrifugation, protein in the clear lysate was quantified by Dc protein assay kit (Bio-Rad). 15 μg of lysate protein were resolved by 10% SDS-PAGE, transferred onto a polyvinylidene difluoride membrane (PVDF membrane, Amersham Biosciences), and immunoblotted with antibodies against followed cellular proteins: DNA topoisomerase I, p53, p27, phosphorylated p27 (Santa Cruz Biotechnology), cyclin E, CDK2 (BD Pharningen), PCNA, p21 (Upstate), and α-tubulin (Sigma). Protein content was visualized with BM Chemiluminescence Blotting Kit (Roche Molecular Biochemicals). The blots were exposed to X-ray film (Fuji) for various times.
(In general: A western blot detects proteins with antibodies after separation by electrophoresis.)

The test system of the next test is Colo-205 cells. Briefly: DNA fragmentation assay. It is filed as cell-based, human. The note with it: various concentrations, 48 hrs, 1.5% agarose gel. From the text:
Because apoptosis always takes place as a consequence of a cell cycle block, it is possible that 10-HCPT is able to cause cell death through apoptosis pathway. To verify this possibility, we first performed DNA fragmentation assay since DNA fragmentation is one characteristic of apoptosis.
The DNA of Colo-205 cells treated with various concentrations of 10-HCPT for 48 hrs was extracted and analyzed by 1.5% native agarose gel electrophoresis.

The subject of the next test is Colo-205 xenografts. Briefly: In vivo antiproliferation, Colo-205 xenografts in BALB/c-nu mice. The note with it: for tumor volume at day 24: control 300.5±22.3. As to the method:
We further examined whether 10-HCPT is effective in growth suppression in vivo after tumor formation. Colo-205 cells were transplanted into BALB/c-nu mice, and when the tumors were palpable (3-5 mm), the mice were treated either with vehicle control or 10-HCPT.
The in vivo experiment was carried out with ethical committee approval and met the standards required by the Guiding Principles in the Use of Animals in Toxicology, which were adopted by the Society of Toxicology in 1989. The BALB/c-nu mice were obtained from National Laboratory Animal Center of National Applied Research Laboratories (Taipei, Taiwan) and housed in a laminar flow room under sterilized conditions with the temperature being maintained at 25±2° C. and the light controlled at 12 h light and 12 h dark cycle. The Colo 205 cells were harvested and resuspended in serum free RPMI-1640 medium. Cells were adjusted to 1×10^7 cells/mL, and transplanted subcutaneously on the flank regions of the mice. Each experimental group included six to seven mice bearing tumors.
10-HCPT was dissolved in propylene glycol and treatment began when the tumor size reached 3-5 mm. 10-HCPT was administered via p.o. once per two or four days at doses of 1-7.5 mg/kg (volume of injection: 0.1 mL/20 g of body weight), respectively. The control group received propylene glycol vehicle once per two days. Tumor size and body weight were monitored twice a week throughout the experiment. The tumor size was measured using a vernier caliper. Tumor volume (V) was calculated according to the formula: V (mm^3)=0.4AB^2, where A and B are the longest diameter and the shortest diameter, respectively. At the end of experiment, all mice were sacrificed by CO2 gas. Tumors, livers, kidneys, and lungs were collected, fixed, embedded and stained with hematoxylin and eosin for pathological analysis.

For `CC[C@@]1(O)C(=O)OCc2c1cc1n(c2=O)Cc2cc3cc(O)ccc3nc2-1` [10-HCPT, 10-hydroxy-camptothecin], in test [1], the “caspase activation with IETD-pNA substrate” value was “only stimulated little caspase activations” and the “caspase activation with LEHD-pNA substrate” value is recorded as “only stimulated little caspase activations”. In test [2] (Colo-205, day 2 and day 3, MTT, vs vehicle controls), the “concentration at which significant growth inhibition was observed” value was 0.2 µM. The “concentration at which complete growth inhibition was observed” value in test [2] (Colo-205, days 1-3, MTT) was 1 µM. In addition, in test [3], the CDK2 expression result was “increasing expression”, the PCNA protein level result is on record as “no effect”, the “amount of p27” value was “decreasing amount” and the cdc25c expression entry is reported as “enhanced”. In test [3], the “cyclin B1 expression” value is recorded as “enhanced”, the “cyclin E expression” value was “increasing expression” and the p21 protein level result is “dramatically increased”. In addition, in the test on Colo-205 cells, the DNA ladders entry is recorded as “DNA ladders were detected”. Moreover, in the test with Colo-205 xenografts (2.5 mg/kg/2 days p.o., P<0.01), the “tumor volume at day 24” value came to 85.9±12.3 mm^3. In addition, the “tumor volume at day 24” value in the test on Colo-205 xenografts (2.5 mg/kg/4 days p.o.) is reported as 273.1±33.7 mm^3. Moreover, the “tumor volume at day 24” value with Colo-205 xenografts (5 mg/kg/2 days p.o., P<0.01) is on record as 60.8±15.4 mm^3. Also, the “tumor volume at day 24” value in the test with Colo-205 xenografts (5 mg/kg/4 days p.o., p<0.05) was determined as 228.9±45.3 mm^3. The “tumor volume at day 24” value in the test with Colo-205 xenografts (7.5 mg/kg/2 days p.o., P<0.01) was 7.2±2.8 mm^3. In the test with Colo-205 xenografts (7.5 mg/kg/4 days p.o., p<0.05), the “tumor volume at day 24” value is 182.9±43.9 mm^3. Also, the tumor growth suppression result with Colo-205 xenografts (oral, 2.5-7.5 mg/kg/2 days, nude mouse xenografts) is listed as “obviously observed”.
